In patent US8802597B2, “Herbicidal pyrimidines” (E I du Pont de Nemours and Company, priority 2003, dated 2014):

Tests used:
Assay in all cases: Test C pre/postemergence
Type in all cases: in vivo
Conditions in all cases: Postemergence
[1] = test system: bermudagrass (Cynodon dactylon)
Procedure, shortened: (§1)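 Pre: seeds planted, sprayed same day. Post: 1- to 4-leaf plants (2–18 cm). Formulation: non-phytotoxic solvent + surfactant. Greenhouse 12–14 d; visual % control vs untreated, 0–100.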

[2] = test system: cocklebur (Xanthium strumarium)
Procedure, shortened: as §1

corn (Zea mays) = test system: corn (Zea mays)
Procedure, shortened: as §1

[3] = test system: crabgrass (Digitaria sanguinalis)
Procedure, shortened: as §1

[4] = test system: goosegrass (Eleusine indica)
Procedure, shortened: as §1

[5] = test system: lambsquarters (Chenopodium album)
Procedure, shortened: as §1

[6] = test system: velvetleaf (Abutilon theophrasti)
Procedure, shortened: as §1

[7] = 62 g ai/ha, scale 0 to 100 (0 no effect, 100 complete control)
[8] = 125 g ai/ha, scale 0 to 100 (0 no effect, 100 complete control)

COC(=O)c1nc(C2CC2)nc(N)c1I [Compound 7]
pest or weed control at 62 g/ha ([1]; Cynodon dactylon, post-emergence, 62 g ai/ha, scale 0 to 100 (0 no effect, 100 complete control), read-out: Bermudagrass plant response rating): 0% | pest or weed control at 125 g/ha ([1]; Cynodon dactylon, post-emergence, 125 g ai/ha, scale 0 to 100, read-out: Plant response rating, Bermudagrass): 0% | pest or weed control at 250 g/ha ([1]; Cynodon dactylon, post-emergence, 250 g ai/ha, scale 0 to 100, read-out: Plant response rating, Bermudagrass): 0% | pest or weed control at 500 g/ha ([1]; Cynodon dactylon, post-emergence, 500 g ai/ha, scale 0 to 100, read-out: Plant response rating, Bermudagrass): 0% | pest or weed control at 62 g/ha ([2]; Xanthium strumarium, post-emergence, 62 g ai/ha, scale 0 to 100 (0 no effect, 100 complete control), read-out: Cocklebur plant response rating): 30% | pest or weed control at 125 g/ha ([2]; Xanthium strumarium, post-emergence, 125 g ai/ha, scale 0 to 100 (0 no effect, 100 complete control), read-out: Cocklebur plant response rating): 30% | pest or weed control at 250 g/ha ([2]; Xanthium strumarium, post-emergence, 250 g ai/ha, scale 0 to 100, read-out: Plant response rating, Cocklebur): 30% | pest or weed control at 500 g/ha ([2]; Xanthium strumarium, post-emergence, 500 g ai/ha, scale 0 to 100, read-out: Plant response rating, Cocklebur): 30% | Corn plant response rating (crop injury, 0 = no effect, 100 = complete kill) at 62 g/ha (corn (Zea mays); Zea mays, post-emergence, 62 g ai/ha, scale 0 to 100 (0 no effect, 100 complete control), read-out: Corn plant response rating): 0% | Corn plant response rating (crop injury, 0 = no effect, 100 = complete kill) at 125 g/ha (corn (Zea mays); Zea mays, post-emergence, 125 g ai/ha, scale 0 to 100 (0 no effect, 100 complete control), read-out: Corn plant response rating): 0% | Corn plant response rating (crop injury, 0 = no effect, 100 = complete kill) at 250 g/ha (corn (Zea mays); Zea mays, post-emergence, 250 g ai/ha, scale 0 to 100): 0% | Corn plant response rating (crop injury, 0 = no effect, 100 = complete kill) at 500 g/ha (corn (Zea mays); Zea mays, post-emergence, 500 g ai/ha, scale 0 to 100): 0% | pest or weed control at 62 g/ha ([3]; Digitaria sanguinalis, post-emergence, 62 g ai/ha, scale 0 to 100 (0 no effect, 100 complete control), read-out: Crabgrass plant response rating): 0% | pest or weed control at 125 g/ha ([3]; Digitaria sanguinalis, post-emergence, 125 g ai/ha, scale 0 to 100 (0 no effect, 100 complete control), read-out: Crabgrass plant response rating): 0% | pest or weed control at 250 g/ha ([3]; Digitaria sanguinalis, post-emergence, 250 g ai/ha, scale 0 to 100, read-out: Plant response rating, Crabgrass): 5% | pest or weed control at 500 g/ha ([3]; Digitaria sanguinalis, post-emergence, 500 g ai/ha, scale 0 to 100, read-out: Plant response rating, Crabgrass): 25% | pest or weed control at 62 g/ha ([4]; Eleusine indica, post-emergence, 62 g ai/ha, scale 0 to 100 (0 no effect, 100 complete control), read-out: Goosegrass plant response rating): 0% | pest or weed control at 125 g/ha ([4]; Eleusine indica, post-emergence, 125 g ai/ha, scale 0 to 100 (0 no effect, 100 complete control), read-out: Goosegrass plant response rating): 0% | pest or weed control at 250 g/ha ([4]; Eleusine indica, post-emergence, 250 g ai/ha, scale 0 to 100, read-out: Plant response rating, Goosegrass): 0% | pest or weed control at 500 g/ha ([4]; Eleusine indica, post-emergence, 500 g ai/ha, scale 0 to 100, read-out: Plant response rating, Goosegrass): 0% | pest or weed control at 62 g/ha ([5]; Chenopodium album, post-emergence, 62 g ai/ha, scale 0 to 100 (0 no effect, 100 complete control), read-out: Lambsquarters plant response rating): 50% | pest or weed control at 125 g/ha ([5]; Chenopodium album, post-emergence, 125 g ai/ha, scale 0 to 100 (0 no effect, 100 complete control), read-out: Lambsquarters plant response rating): 60% | pest or weed control at 250 g/ha ([5]; Chenopodium album, post-emergence, 250 g ai/ha, scale 0 to 100, read-out: Plant response rating, Lambsquarters): 70% | pest or weed control at 500 g/ha ([5]; Chenopodium album, post-emergence, 500 g ai/ha, scale 0 to 100, read-out: Plant response rating, Lambsquarters): 80% | pest or weed control at 62 g/ha ([6]; Abutilon theophrasti, post-emergence, 62 g ai/ha, scale 0 to 100 (0 no effect, 100 complete control), read-out: Velvetleaf plant response rating): 0% | pest or weed control at 125 g/ha ([6]; Abutilon theophrasti, post-emergence, 125 g ai/ha, scale 0 to 100 (0 no effect, 100 complete control), read-out: Velvetleaf plant response rating): 10% | pest or weed control at 250 g/ha ([6]; Abutilon theophrasti, post-emergence, 250 g ai/ha, scale 0 to 100, read-out: Plant response rating, Velvetleaf): 35% | pest or weed control at 500 g/ha ([6]; Abutilon theophrasti, post-emergence, 500 g ai/ha, scale 0 to 100, read-out: Plant response rating, Velvetleaf): 40%

CCOC(=O)c1nc(-c2ccc(Cl)cc2)nc(N)c1Br [Compound 37]
Bermudagrass plant response rating [1, 7]: 0 | Bermudagrass plant response rating [1, 8]: 0 | Plant response rating, Bermudagrass ([1]; 250 g ai/ha, scale 0 to 100): 0 | Plant response rating, Bermudagrass ([1]; 500 g ai/ha, scale 0 to 100): 20 | Cocklebur plant response rating [2, 7]: 0 | Cocklebur plant response rating [2, 8]: 95 | Plant response rating, Cocklebur ([2]; 250 g ai/ha, scale 0 to 100): 95 | Plant response rating, Cocklebur ([2]; 500 g ai/ha, scale 0 to 100): 95 | Corn plant response rating (corn (Zea mays); [7]): 0 | Corn plant response rating (corn (Zea mays); [8]): 10 | Plant response rating, Corn (corn (Zea mays); 250 g ai/ha, scale 0 to 100): 15 | Plant response rating, Corn (corn (Zea mays); 500 g ai/ha, scale 0 to 100): 25 | Crabgrass plant response rating [3, 7]: 0 | Crabgrass plant response rating [3, 8]: 15 | Plant response rating, Crabgrass ([3]; 250 g ai/ha, scale 0 to 100): 40 | Plant response rating, Crabgrass ([3]; 500 g ai/ha, scale 0 to 100): 60 | Goosegrass plant response rating [4, 7]: 0 | Goosegrass plant response rating [4, 8]: 0 | Plant response rating, Goosegrass ([4]; 250 g ai/ha, scale 0 to 100): 0 | Plant response rating, Goosegrass ([4]; 500 g ai/ha, scale 0 to 100): 0 | Lambsquarters plant response rating [5, 7]: 0 | Lambsquarters plant response rating [5, 8]: 95 | Plant response rating, Lambsquarters ([5]; 250 g ai/ha, scale 0 to 100): 95 | Plant response rating, Lambsquarters ([5]; 500 g ai/ha, scale 0 to 100): 95 | Velvetleaf plant response rating [6, 7]: 0 | Velvetleaf plant response rating [6, 8]: 85 | Plant response rating, Velvetleaf ([6]; 250 g ai/ha, scale 0 to 100): 90 | Plant response rating, Velvetleaf ([6]; 500 g ai/ha, scale 0 to 100): 95
